Measurements reported in ChEMBL document CHEMBL2029212, “Discovery of 1,4-disubstituted 3-cyano-2-pyridones: a new class of positive allosteric modulators of the metabotropic glutamate 2 receptor” (J Med Chem, 2012).
pEC50: −log10 of the molar value.

Legend:
[1] = target: T1, Metabotropic glutamate receptor 2 (Homo sapiens, UniProt Q14416); assay: Positive allosteric modulation of human mGlu2 receptor expressed in CHO cells assessed as glutamate-induced [35S]GTPgammaS binding after 30 mins by liquid scintillation counting; type: functional, cell-based
Target sequence in this assay (Q14416 whole entry): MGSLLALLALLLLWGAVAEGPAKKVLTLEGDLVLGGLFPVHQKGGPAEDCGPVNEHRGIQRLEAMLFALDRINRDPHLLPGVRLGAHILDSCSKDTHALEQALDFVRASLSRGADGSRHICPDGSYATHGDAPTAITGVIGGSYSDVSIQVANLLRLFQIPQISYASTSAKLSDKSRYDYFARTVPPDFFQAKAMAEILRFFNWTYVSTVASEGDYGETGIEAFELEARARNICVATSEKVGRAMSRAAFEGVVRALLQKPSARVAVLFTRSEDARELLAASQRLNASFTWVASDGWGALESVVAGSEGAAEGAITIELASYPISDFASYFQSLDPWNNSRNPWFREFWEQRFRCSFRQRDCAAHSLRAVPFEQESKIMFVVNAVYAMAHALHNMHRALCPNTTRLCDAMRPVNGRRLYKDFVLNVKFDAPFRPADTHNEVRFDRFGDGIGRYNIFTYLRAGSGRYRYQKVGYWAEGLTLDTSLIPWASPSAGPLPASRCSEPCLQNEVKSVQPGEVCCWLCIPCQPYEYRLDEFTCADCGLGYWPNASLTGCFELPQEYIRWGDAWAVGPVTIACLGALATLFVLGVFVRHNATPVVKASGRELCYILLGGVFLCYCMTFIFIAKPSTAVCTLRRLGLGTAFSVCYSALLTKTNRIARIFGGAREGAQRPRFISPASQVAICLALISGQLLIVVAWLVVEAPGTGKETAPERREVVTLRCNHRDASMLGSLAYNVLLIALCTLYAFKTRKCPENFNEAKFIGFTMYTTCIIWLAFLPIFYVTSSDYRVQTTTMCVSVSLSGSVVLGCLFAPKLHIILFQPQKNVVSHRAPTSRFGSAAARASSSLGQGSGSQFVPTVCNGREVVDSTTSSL

[2] = target: T1, Metabotropic glutamate receptor 2; assay: Positive allosteric modulation of human mGlu2 receptor expressed in CHO cells assessed as glutamate-induced [35S]GTPgammaS binding after 30 mins by liquid scintillation counting relative to glutamate; type: functional, cell-based
Target sequence in this assay (Q14416 19-872 limits assumed): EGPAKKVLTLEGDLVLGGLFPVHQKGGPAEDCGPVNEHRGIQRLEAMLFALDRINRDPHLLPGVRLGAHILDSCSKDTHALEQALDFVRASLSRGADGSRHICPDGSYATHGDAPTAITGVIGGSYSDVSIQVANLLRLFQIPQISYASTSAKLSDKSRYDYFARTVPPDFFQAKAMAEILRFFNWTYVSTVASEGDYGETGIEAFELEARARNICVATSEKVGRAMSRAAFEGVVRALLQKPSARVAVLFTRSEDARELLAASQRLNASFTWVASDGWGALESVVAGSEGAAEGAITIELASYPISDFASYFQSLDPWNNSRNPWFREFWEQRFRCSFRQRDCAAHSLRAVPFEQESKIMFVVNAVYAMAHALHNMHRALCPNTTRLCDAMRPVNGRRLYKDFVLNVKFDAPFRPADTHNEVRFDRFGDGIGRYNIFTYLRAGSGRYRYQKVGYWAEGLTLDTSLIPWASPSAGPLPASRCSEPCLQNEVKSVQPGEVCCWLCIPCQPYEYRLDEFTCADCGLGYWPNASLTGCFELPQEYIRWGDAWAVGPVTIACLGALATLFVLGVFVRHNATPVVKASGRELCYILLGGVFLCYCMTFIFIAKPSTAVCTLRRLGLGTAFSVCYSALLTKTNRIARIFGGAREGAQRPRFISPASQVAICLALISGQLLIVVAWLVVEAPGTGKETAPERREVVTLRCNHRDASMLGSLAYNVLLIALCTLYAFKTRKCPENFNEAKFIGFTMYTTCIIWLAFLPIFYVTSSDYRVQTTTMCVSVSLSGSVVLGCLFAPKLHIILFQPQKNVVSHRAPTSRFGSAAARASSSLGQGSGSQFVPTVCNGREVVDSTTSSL

[3] = Drug metabolism in human liver microsomes at 5 uM after 15 mins; type: ADME, Microsome; details: read-out: Drug metabolism
[4] = Drug metabolism in rat liver microsomes at 5 uM after 15 mins; type: ADME, Microsome; details: read-out: Drug metabolism
hERG = hERG (Homo sapiens, UniProt Q12809); assay: Inhibition of human ERG expressed in HEK293 cells assessed as whole cell current at 3 uM after 5 mins by automated patch-clamp assay relative to control; type: cell-based; details: HEK293 cells expressing hERG
[5] = Aqueous solubility of the compound in 20% HP-beta-CD buffer at pH 4; type: physicochemical
[6] = Drug level in Swiss mouse brain at 10 mg/kg, sc after 1 hr; type: ADME, organism-based; set-up: dose 10 mg/kg, route subcutaneous; details: read-out: Drug uptake
[7] = Drug level in Swiss mouse brain at 10 mg/kg, sc after 1.5 hrs; type: ADME, organism-based; set-up: dose 10 mg/kg, route subcutaneous; details: read-out: Drug uptake
[8] = Ratio of drug level in brain to plasma in Swiss mouse at 10 mg/kg, sc after 1 hr; type: ADME, organism-based; set-up: dose 10 mg/kg, route subcutaneous; details: read-out: BPR
[9] = Drug level in Swiss mouse brain at 10 mg/kg, sc after 0.5 hrs; type: ADME, organism-based; set-up: dose 10 mg/kg, route subcutaneous; details: read-out: Drug uptake

Sequence of hERG (Q12809 whole entry): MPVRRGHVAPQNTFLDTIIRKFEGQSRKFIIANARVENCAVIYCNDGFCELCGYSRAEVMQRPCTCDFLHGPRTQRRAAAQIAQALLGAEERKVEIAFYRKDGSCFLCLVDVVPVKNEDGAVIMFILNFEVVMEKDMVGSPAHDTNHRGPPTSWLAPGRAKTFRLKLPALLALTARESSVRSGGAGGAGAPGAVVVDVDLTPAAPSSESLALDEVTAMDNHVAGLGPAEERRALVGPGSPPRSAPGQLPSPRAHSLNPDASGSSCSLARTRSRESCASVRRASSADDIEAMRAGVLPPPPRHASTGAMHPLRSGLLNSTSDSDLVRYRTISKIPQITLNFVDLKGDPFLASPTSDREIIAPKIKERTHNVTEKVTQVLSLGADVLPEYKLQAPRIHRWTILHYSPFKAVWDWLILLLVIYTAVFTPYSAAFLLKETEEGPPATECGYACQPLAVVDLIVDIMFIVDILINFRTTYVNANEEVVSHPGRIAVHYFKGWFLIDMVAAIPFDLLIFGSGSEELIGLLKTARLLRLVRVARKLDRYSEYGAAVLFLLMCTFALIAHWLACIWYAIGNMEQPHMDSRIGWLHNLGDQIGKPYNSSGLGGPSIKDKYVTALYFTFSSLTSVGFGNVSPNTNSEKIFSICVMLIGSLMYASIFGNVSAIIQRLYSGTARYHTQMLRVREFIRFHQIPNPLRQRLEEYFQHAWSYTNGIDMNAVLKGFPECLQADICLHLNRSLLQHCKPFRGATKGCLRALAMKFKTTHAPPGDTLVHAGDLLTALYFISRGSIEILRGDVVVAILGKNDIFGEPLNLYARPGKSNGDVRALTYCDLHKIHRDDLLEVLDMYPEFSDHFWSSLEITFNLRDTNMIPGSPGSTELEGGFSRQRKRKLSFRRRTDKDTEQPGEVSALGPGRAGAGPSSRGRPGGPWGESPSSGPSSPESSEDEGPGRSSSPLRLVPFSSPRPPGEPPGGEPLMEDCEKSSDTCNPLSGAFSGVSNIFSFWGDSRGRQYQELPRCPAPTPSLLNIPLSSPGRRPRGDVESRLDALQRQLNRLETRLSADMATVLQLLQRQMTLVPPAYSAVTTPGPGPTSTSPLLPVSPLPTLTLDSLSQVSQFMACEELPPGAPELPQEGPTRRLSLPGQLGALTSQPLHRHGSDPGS

SMILES | pEC50 [1] | Emax [2] [%] | metabolised at 0.25 h, 5 µM [3] [%] | metabolised at 0.25 h, 5 µM [4] [%] | solubility [5] [µg/mL] | concentration at 1 h [6] [ng/g] | concentration at 1.5 h [7] [ng/g] | Kp at 1 h [8] | concentration at 0.5 h [9] [ng/g] | inhibition at 5 min, 3 µM (hERG) [%]
COc1ccccc1-c1ccn(CCC(C)C)c(=O)c1C#N | < 5.00 | 120 | 38 | – | – | – | – | – | – | –
CC(C)CCn1ccc(-c2ccc(Oc3cccnc3)cc2)c(C#N)c1=O | 6.32 | 231 | 21 | 29 | ≥ 4000 | – | – | – | – | 30
CC(C)CCn1ccc(-c2ccc(N3CCOCC3)cc2)c(C#N)c1=O | 5.69 | 236 | 38 | 48 | – | – | – | – | – | –
CC(C)CCn1ccc(-c2ccccc2)c(C#N)c1=O | 5.07 | 117 | 36 | 100 | – | – | – | – | – | –
Cc1ncccc1Oc1ccc(-c2ccn(CC3CC3)c(=O)c2C#N)cc1 | 5.97 | 155 | 36 | 39 | – | – | – | – | – | –
Cc1ccc(Oc2ccc(-c3ccn(CC4CC4)c(=O)c3C#N)cc2)c(C)n1 | 6.58 | 183 | 35 | 42 | – | – | – | – | – | 68
CCCCn1ccc(-c2ccc(Oc3ccnc(C)c3)cc2Cl)c(C#N)c1=O | 6.03 | 187 | 34 | 47 | – | – | – | – | – | –
Cc1ncccc1Oc1ccc(-c2ccn(CCC(C)C)c(=O)c2C#N)cc1 | 6.56 | 256 | 57 | 45 | – | – | – | – | – | 36
CC(C)CCn1ccc(-c2ccc(Oc3ccccn3)cc2)c(C#N)c1=O | 6.19 | 249 | 20 | 36 | – | – | – | – | – | 33

Now from value to molecule, other results behind:

pEC50 [1] | Emax [2] [%] | metabolised at 0.25 h, 5 µM [3] [%] | metabolised at 0.25 h, 5 µM [4] [%] | solubility [5] [µg/mL] | concentration at 1 h [6] [ng/g] | concentration at 1.5 h [7] [ng/g] | Kp at 1 h [8] | concentration at 0.5 h [9] [ng/g] | SMILES | inhibition at 5 min, 3 µM (hERG) [%]
6.59 | 242 | 26 | – | – | – | – | – | – | COc1ccc(-c2ccn(CCC(C)C)c(=O)c2C#N)cc1OC | –
6.76 | 247 | 42 | 47 | – | – | – | – | – | CC(C)CCn1ccc(-c2ccc(NC3CCOCC3)c(Cl)c2)c(C#N)c1=O | –
6.96 | 206 | 17 | 72 | – | – | – | – | – | CC(C)CCn1ccc(-c2ccc(OCC3CC3)c(Cl)c2)c(C#N)c1=O | –
6.64 | 180 | 37 | 22 | – | – | – | – | – | Cc1ncccc1Oc1ccc(-c2ccn(CC3CC3)c(=O)c2C#N)cc1Cl | 75
7.00 | 246 | 59 | 49 | – | – | – | – | – | Cc1ccc(Oc2ccc(-c3ccn(CCC(C)C)c(=O)c3C#N)cc2)c(C)n1 | –
6.73 | 197 | 36 | 54 | – | – | – | – | – | CC(C)CCn1ccc(-c2ccc(OC3CCOCC3)c(Cl)c2)c(C#N)c1=O | –
6.86 | 239 | 51 | 60 | – | – | – | – | – | CCCCn1ccc(-c2ccc(Oc3ccc(C)nc3C)cc2)c(C#N)c1=O | –
7.52 | 231 | 34 | 50 | – | 830 | 281 | 0.4 | 1480 | CCCCn1ccc(-c2ccc(Oc3ccc(C)nc3C)c(Cl)c2)c(C#N)c1=O | 80
